We go through 33 compounds from PubChem BioAssay (NCI).

Values joined by “and” are separate entries in the source; they are usually repeats but may differ in a detail not shown here. Equal entries are not always repeated.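 Growth conditions: 96-well plates. Treatment: test compound, 48 hours, 5 concentrations. Analysis: linear interpolation between bracketing concentrations; unreached endpoints set to highest concentration. GI50 is the concentration that inhibits growth by half. Definition used: TGI = concentration required for complete inhibition of growth.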 Active and inactive are the calls of the source. Rule as the data show it: active = GI50 below about 0.43 µM; inactive = the rest.

Test systems include HS 578T breast; K-562 leukemia; UACC-62 melanoma.
Common to all, as to assay: inhibition of tumour cell growth, NCI panel, 48 h

Turning to `Cn1c2ccccc2c2ccc3c(c21)C(=O)c1ccccc1C3=O`, the TGI turned out to be 46.6 µM in the experiment with HS 578T breast, 32.2 µM in the experiment on K-562 leukemia and 38.3 µM in the experiment on UACC-62 melanoma.

As to `O=C1c2ccccc2C(=O)N1CCc1ncc[nH]1`, the TGI in the experiment on HS 578T breast, in the experiment with K-562 leukemia and in the experiment with UACC-62 melanoma was more than 100 µM in each case.

As for `Cc1ccc(C(=O)N(CCCN)C(c2oc3cc(Cl)ccc3c(=O)c2Cc2ccccc2)C(C)C)cc1` (stereo unspecified), the GI50 in the experiment on HS 578T breast, with K-562 leukemia and in the experiment with UACC-62 melanoma was less than 0.01 µM throughout. Also, the TGI in the experiment with HS 578T breast was 1.46 µM; in the experiment on K-562 leukemia, 1.41 µM; in the experiment on UACC-62 melanoma, 2.3 µM.

As for `O=C(O)CCNC1CCCCC1`, the GI50 in the experiment with HS 578T breast, with K-562 leukemia and in the experiment with UACC-62 melanoma was more than 100 µM each time. Also, the TGI in the experiment on HS 578T breast, in the experiment with K-562 leukemia and in the experiment on UACC-62 melanoma was more than 100 µM in each case.

Turning to `O=C1CCC(N2C(=O)c3ccccc3C2=O)C(=O)N1CO` (stereo unspecified), the GI50 is more than 100 µM in the experiment with HS 578T breast, more than 100 µM with K-562 leukemia and 32.6 µM in the experiment with UACC-62 melanoma. Also, the TGI in the experiment on HS 578T breast, in the experiment with K-562 leukemia and in the experiment with UACC-62 melanoma was more than 100 µM in each case.

Regarding `O=C1C(Cl)=C(NCCN2CCOCC2)C(=O)c2ncccc21`, the GI50 in the experiment with HS 578T breast is 3.39 µM; in the experiment on K-562 leukemia it was 1.67 µM; in the experiment with UACC-62 melanoma, 1.15 µM. Also, the TGI in the experiment on HS 578T breast is 4.97 µM and 19 µM; in the experiment with K-562 leukemia, 3.67 µM and 4.61 µM; in the experiment with UACC-62 melanoma, 3.52 µM and 2.61 µM.

Consider `Nc1nc2c(nnn2C2CC(O)C(CO)O2)c(=O)[nH]1` (stereo unspecified), for which the GI50 in the experiment with HS 578T breast was more than 33.9 µM; in the experiment on K-562 leukemia, 4.04 µM; with UACC-62 melanoma it was 3.48 µM. Moreover, the TGI in the experiment on HS 578T breast is more than 95.7 µM; in the experiment with K-562 leukemia, more than 100 µM; with UACC-62 melanoma, 36.2 µM.

As to `CS(=O)(=O)c1ccc(-n2nc(C(F)(F)F)cc2OC2CCCC2)cc1`, the GI50 in the experiment on HS 578T breast was more than 100 µM; with K-562 leukemia, 29.1 µM; in the experiment with UACC-62 melanoma it was 33.3 µM. The figures for the TGI in the experiment on HS 578T breast, in the experiment on K-562 leukemia and with UACC-62 melanoma were more than 100 µM, 92.6 µM and more than 100 µM, respectively.

As for `Cc1ccc(-c2nc3nc(-c4ccccc4)nc(N4CCCNCC4)c3o2)cc1`, the GI50 in the experiment with HS 578T breast was 1.83 µM; in the experiment with K-562 leukemia, 0.442 µM; with UACC-62 melanoma, 1.68 µM. Besides, the values for the TGI with HS 578T breast, in the experiment on K-562 leukemia and in the experiment on UACC-62 melanoma were 4.02 µM, 1.86 µM and 3.14 µM, respectively.

`CCCCCCCC[C@@H](O)CC(=O)N[C@@H](CC(N)=O)C(=O)N[C@@H](CCC(N)=O)C(=O)N[C@@H](CC(=O)c1cc(C)cc(O)c1C(=O)c1c(O)cccc1O)CC(C)C`: the GI50 in the experiment with HS 578T breast is 3.46 µM; in the experiment on K-562 leukemia it was 0.408 µM; in the experiment with UACC-62 melanoma, 0.317 µM. Moreover, the results for the TGI in the experiment on HS 578T breast, with K-562 leukemia and with UACC-62 melanoma were 62 µM, more than 100 µM and 1.89 µM, respectively.

Turning to `O=C(O)C(=Cc1ccc(-c2ccccc2)cc1)C(=O)O`, the TGI was more than 100 µM with HS 578T breast, 36.9 µM in the experiment on K-562 leukemia and 26.1 µM in the experiment with UACC-62 melanoma.

For the compound `Cc1ccc2c(c1)Sc1c(ccc3ccccc13)N2`, in the experiment with K-562 leukemia, the GI50 was 11.2 µM and the TGI is more than 100 µM. Besides, in the experiment with UACC-62 melanoma, the GI50 was 73.8 µM and the TGI is more than 100 µM.

As for `O=c1cc(-c2ccccc2)oc2cc(OC/C(=N/O)c3ccccc3)ccc12`, the GI50 in the experiment on K-562 leukemia was 36.5 µM; in the experiment on UACC-62 melanoma, 12.7 µM. Besides, the TGI with K-562 leukemia and in the experiment with UACC-62 melanoma was more than 50 µM in each case.

On to `CC1(C)OC2=C(CC1Br)C(=O)C(=O)c1ccccc12` (stereo unspecified), for which the GI50 in the experiment on HS 578T breast is 2.65 µM; with K-562 leukemia, 2.23 µM; in the experiment on UACC-62 melanoma, 2.08 µM. In addition, the TGI in the experiment with HS 578T breast was 7.69 µM; with K-562 leukemia it was 4.89 µM; in the experiment with UACC-62 melanoma, 3.98 µM.

As for `O=C(Nc1ccncc1)C(=O)c1cn(S(=O)(=O)c2cccc(F)c2)c2ccccc12`, the GI50 in the experiment with HS 578T breast was 8.31 µM; in the experiment on K-562 leukemia, 1.65 µM; in the experiment with UACC-62 melanoma it was 2.96 µM. In addition, the TGI with HS 578T breast, in the experiment with K-562 leukemia and in the experiment on UACC-62 melanoma was more than 100 µM in each case.

With `COc1ccc(C(=O)C#Cc2cnc(OC)nc2OC)cc1`, in the experiment on HS 578T breast, the TGI was 27.7 µM and the outcome was inactive. Also, the GI50 in the experiment on K-562 leukemia was 12100 µM. Further, in the experiment on UACC-62 melanoma, the GI50 was 31900 µM and the TGI was 2.8 µM.

For the compound `CC(C)(CO)N1CCN(C(=S)Nc2ccccc2)CC1`, the TGI is more than 100 µM with HS 578T breast, 99.5 µM in the experiment on K-562 leukemia and more than 100 µM with UACC-62 melanoma.

Take `O=C(O)/C=C(\c1nc2ccc([N+](=O)[O-])cc2[nH]1)c1cc(Cl)ccc1O`: the GI50 is 4.97 µM in the experiment with HS 578T breast, 2.8 µM in the experiment with K-562 leukemia and 1.45 µM in the experiment with UACC-62 melanoma. Further, the TGI in the experiment on HS 578T breast was more than 100 µM; with K-562 leukemia, 16.6 µM; in the experiment with UACC-62 melanoma, 5.41 µM.

Take `COc1cc(C(=O)CBr)c(OC)cc1C`: the TGI in the experiment with HS 578T breast, in the experiment with K-562 leukemia and in the experiment on UACC-62 melanoma was more than 100 µM in each case.

`O=C1c2cccc([N+](=O)[O-])c2C(=O)N1c1ncn[nH]1`: the TGI in the experiment with HS 578T breast, with K-562 leukemia and in the experiment with UACC-62 melanoma was more than 100 µM throughout.

Turning to `N#CC(C#N)=C1Nc2ccccc2S1`, the GI50 is 34.1 µM in the experiment with HS 578T breast, 38.3 µM with K-562 leukemia and 37.2 µM with UACC-62 melanoma. Moreover, the TGI in the experiment with HS 578T breast is 85.9 µM; in the experiment with K-562 leukemia, more than 100 µM; in the experiment with UACC-62 melanoma it was more than 100 µM.

As for `O=S(=O)(NC1=NCCN1C(=S)SN1CCn2c1nsc2=S)c1cccc(Cl)c1`, the GI50 was 39.3 µM in the experiment on HS 578T breast, 13.4 µM in the experiment on K-562 leukemia and 15.4 µM in the experiment on UACC-62 melanoma. The TGI was more than 100 µM in the experiment with HS 578T breast, more than 100 µM in the experiment on K-562 leukemia and 34.3 µM with UACC-62 melanoma.

For the compound `C=C(C[C@](O)(C(=O)/C=C/c1ccc(Cl)cc1)C(=O)OC)c1ccccc1`, the figures for the GI50 with HS 578T breast, in the experiment on K-562 leukemia and in the experiment on UACC-62 melanoma were 4.11 µM, 2.12 µM and 2.03 µM, respectively. Further, the TGI in the experiment on HS 578T breast stood at 34.6 µM; with K-562 leukemia, 8.8 µM; in the experiment on UACC-62 melanoma it was 4.58 µM.

As for `CS(=O)(=O)CCNCc1ccc(-c2ccc3ncnc(Nc4ccc(OCc5ccccc5)cc4)c3c2)o1`, the GI50 in the experiment on HS 578T breast is 6.43 µM; in the experiment with K-562 leukemia it was 9.27 µM; in the experiment on UACC-62 melanoma, 4.68 µM. For the same compound, the TGI with HS 578T breast is more than 20.5 µM; in the experiment on K-562 leukemia, more than 25 µM; with UACC-62 melanoma it was 8.98 µM.

Regarding `Cc1ccc(C(=O)NC(C)C)cc1-c1ccc(C(=O)NCC2CC2)cc1`, the GI50 with HS 578T breast, with K-562 leukemia and in the experiment with UACC-62 melanoma was more than 25 µM in each case. The TGI in the experiment on HS 578T breast, in the experiment on K-562 leukemia and with UACC-62 melanoma was more than 25 µM in each case.

As to `CCOC1Oc2ccc(C)cc2C(=O)/C1=C\Nc1ccc(C(N)=O)cc1` (stereo unspecified), the GI50 was 22.8 µM in the experiment on HS 578T breast, 22.6 µM in the experiment with K-562 leukemia and 13.6 µM with UACC-62 melanoma. Further, the TGI in the experiment with HS 578T breast turned out to be 64.4 µM; in the experiment on K-562 leukemia, 66.6 µM; with UACC-62 melanoma, 30.8 µM.

For `O=C(Nc1ccc(-c2nc(N3CCOCC3)c3cccn3n2)cc1)Nc1cccnc1`, in the experiment on HS 578T breast, the GI50 is 0.0545 µM and the TGI was determined as 0.416 µM. Also, in the experiment with K-562 leukemia, the GI50 was 0.195 µM and the TGI is more than 100 µM.

For `O=C(CC1C(=O)NN(c2ccc(Br)cc2)C1=O)c1cc(O)ccc1O` (stereo unspecified), the GI50 in the experiment on HS 578T breast is 26.2 µM; with K-562 leukemia it was 14.8 µM; in the experiment with UACC-62 melanoma, 12 µM. The TGI in the experiment with HS 578T breast was more than 50 µM; with K-562 leukemia it was more than 50 µM; in the experiment on UACC-62 melanoma it was 27.7 µM.

With `O=C(CCc1nnc2sc(-c3ccc(Cl)cc3Cl)nn12)c1nc2ccccc2[nH]1`, the GI50 in the experiment with HS 578T breast is 2.23 µM; with K-562 leukemia it was 0.451 µM; in the experiment with UACC-62 melanoma, 1.19 µM. In addition, the TGI with HS 578T breast was 8.29 µM; in the experiment on K-562 leukemia, 2.56 µM; in the experiment with UACC-62 melanoma, 2.62 µM.

For the compound `COc1ccc(-c2nc(-c3nc4ccc(Cl)cc4[nH]3)c3ccccn23)cc1`, the GI50 in the experiment on HS 578T breast is 2.76 µM; in the experiment on K-562 leukemia, 5.4 µM; in the experiment with UACC-62 melanoma, 4.89 µM. In addition, the TGI with HS 578T breast turned out to be 8.06 µM; in the experiment on K-562 leukemia, 80.1 µM; in the experiment with UACC-62 melanoma it was 20.9 µM.

With `CC/C=C\C[C@@H](O)C/C=C1/C(=O)C=C[C@H]1C/C=C\CCCC(=O)OC`, the GI50 was 4.06 µM in the experiment on HS 578T breast, 0.987 µM with K-562 leukemia and 2.8 µM in the experiment on UACC-62 melanoma. The TGI in the experiment on HS 578T breast stood at 26.2 µM; in the experiment on K-562 leukemia, 10.1 µM; in the experiment with UACC-62 melanoma it was 8.6 µM.

For `CC(=O)O[C@H]1C(=O)[C@@]2(C)C(C(OC(=O)c3ccccc3)[C@]3(O)CC(OC(=O)[C@H](OC(=O)CCC(=O)O)C(NC(=O)c4ccccc4)c4ccccc4)C(C)=C1C3(C)C)C1(OC(C)=O)COC1C[C@@H]2O` (stereo partly specified), the TGI in the experiment on HS 578T breast is 3.1 µM and 1.57 µM.

For the compound `NC(=O)NS(=O)(=O)c1ccc(N2N=C(C(F)(F)F)CC2c2cc(C(F)(F)F)cc(C(F)(F)F)c2)cc1` (stereo unspecified), in the experiment on K-562 leukemia, the GI50 is 4.98 µM and the TGI was more than 100 µM. In addition, in the experiment on UACC-62 melanoma, the GI50 was 10.4 µM and the TGI turned out to be 22.7 µM.
